In US10821115B2, “Compounds that inhibit Mcl-1 protein” (priority 2017, dated 2020):
Like-named read-outs stand apart in the source and are kept apart here.

Columns and labels:
[1] = system: human multiple myeloma cell line, OPM-2; experiment: Cell viability assay (OPM-2 10 FBS), CellTiter-Glo; format: cell-based
Procedure, shortened: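 Steps: plate cells at 3000/well in 10% FBS growth medium, add serially diluted compound, incubate 16 h at 37 °C with 5% CO2, add detection reagent and read luminescence after 25 min. A 4-parameter logistic model gives IC50.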

[2] = molecular target: recombinant human Mcl-1 (residues 171-327) / Bim interaction (Homo sapiens (Human), UniProt Q07820); experiment: biochemical; format: binding; details: read-out: Mcl-1 HTRF IC50
[3] = read-out: OPM-2 10% FBS IC50 IP, OPM-2 cells, 10% FBS, 16 h, CellTiter-Glo
[4] = TR-FRET, Mcl-1(171-327) / biotin-Bim (51-76)
[5] = Homo sapiens, OPM-2, 16 h, read-out: OPM-2 10% FBS IC50 IP, OPM-2 cells, 10% FBS, 16 h, CellTiter-Glo
[6] = Homo sapiens, OPM-2, 16 h, read-out: OPM-2 10% FBS IC50 IP, OPM-2 cells, 10% FBS, 16 h incubation
[7] = 0.1 nM Mcl-1(171-327), 0.05 nM biotin-Bim (51-76)

recombinant human Mcl-1 (residues 171-327) / Bim interaction, sequence (Q07820 171-327): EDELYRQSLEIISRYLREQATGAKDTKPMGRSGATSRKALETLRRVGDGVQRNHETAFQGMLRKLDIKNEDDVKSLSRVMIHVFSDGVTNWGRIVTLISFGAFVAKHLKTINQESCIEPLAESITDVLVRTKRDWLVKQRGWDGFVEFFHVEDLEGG

Compound C=CCC[C@@]1(O)/C=C/C[C@H](C)[C@@H](C)S(=O)(=O)NC(=O)c2ccc3c(c2)N(C[C@@H]2CC[C@H]21)C[C@@]1(CCCc2cc(Cl)ccc21)CO3 [Example 100157, (1S,3′R,6′R,7′R,8′E,11′S,12′R)-7′-(3-buten-1-yl)-6-chloro-7′-hydroxy-11′,12′-dimethyl-3,4-dihydro-2H,15′H-spiro[naphthalene-1,22′-[20]oxa[13]thia[1,14]diazatetracyclo [14.7.2.0~3,6~.0~19,24~]pentacosa[8,16,18,24]tetraen]-15′-one 13′,13′-dioxide] has an IC50 [1, 3] of 3210 nM and an IC50 [2, 4] of 4.81 nM.

Work on C[C@@H]1[C@@H](C)CCC[C@@](O)([C@@H]2CCN(C)C2=O)[C@@H]2CC[C@H]2CN2C[C@@]3(CCCc4cc(Cl)ccc43)COc3ccc(cc32)C(=O)NS1(=O)=O [Example 100202, (1S,3′R,6′R,7′S,11′S,12′R)-6-chloro-7′-hydroxy-11′,12′-dimethyl-7′-((3S)-1-methyl-2-oxo-3-pyrrolidinyl)-3,4-dihydro-2H,15′H-spiro[naphthalene-1,22′-[20]oxa[13]thia[1,14]diazatetracyclo [14.7.2.0~3,6~.0~19,24~]pentacosa[16,18,24]trien]-15′-one 13′,13′-dioxide] yielded an IC50 [1, 3] of 928 nM and an IC50 [2, 4] of 0.352 nM.

In the case of CCC[C@]1(O)/C=C/C[C@H](C)[C@@H](C)S(=O)(=O)NC(=O)c2ccc3c(c2)N(C[C@@H]2CC[C@H]21)C[C@@]1(CCCc2cc(Cl)ccc21)CO3 [Example 100232, (1S,3′R,6′R,7′S,8′E,11′S,12′R)-6-chloro-7′-hydroxy-11′,12′-dimethyl-7′-propyl-3,4-dihydro-2H,15′H-spiro[naphthalene-1,22′-[20]oxa[13]thia[1,14]diazatetracyclo [14.7.2.0~3,6~.0~19,24~]pentacosa[8,16,18,24]tetraen]-15′-one 13′,13′-dioxide], the IC50 [1, 5] is reported as 389 nM and the IC50 [2] is reported as 0.152 nM.

Compound CO[C@@]1(CN2CC(CO)(CO)C2)/C=C/C[C@H](C)[C@@H](C)S(=O)(=O)NC(=O)c2ccc3c(c2)N(C[C@@H]2CC[C@H]21)C[C@@]1(CCCc2cc(Cl)ccc21)CO3 [Example 206, (1S,3′R,6′R,7′S,8′E,11′S,12′R)-7′-((3,3-bis(hydroxymethyl)-1-azetidinyl)methyl)-6-chloro-7′-methoxy-11′,12′-dimethyl-3,4-dihydro-2H,15′H-spiro[naphthalene-1,22′-[20]oxa[13]thia[1,14]diazatetracyclo [14.7.2.0~3,6~.0~19,24~]pentacosa[8,16,18,24]tetraen]-15′-one 13′,13′-dioxide] has an IC50 [1, 6] of 6300 nM and an IC50 [2, 7] of 0.223 nM.

C[C@@H]1[C@@H](C)C/C=C/[C@@](O)(c2ccc(F)nc2)[C@@H]2CC[C@H]2CN2C[C@@]3(CCCc4cc(Cl)ccc43)COc3ccc(cc32)C(=O)NS1(=O)=O (single isomer, unassigned) [Example 100530] was tested, and the IC50 [1, 3] was 448 nM and the IC50 [2, 4] was 0.171 nM.

In the case of C[C@@H]1[C@@H](C)C/C=C/[C@@](O)(CC#N)[C@@H]2CC[C@H]2CN2C[C@@]3(CCCc4cc(Cl)ccc43)COc3ccc(cc32)C(=O)NS1(=O)=O [Example 100051, ((1S,3′R,6′R,7′S,8′E,11′S,12′R)-6-chloro-7′-hydroxy-11′,12′-dimethyl-13′,13′-dioxido-15′-oxo-3,4-dihydro-2H-spiro[naphthalene-1,22′-[20]oxa[13]thia[1,14]diazatetracyclo [14.7.2.0~3,6~.0~19,24~]pentacosa[8,16,18,24]tetraen]-7′-yl)acetonitrile], the IC50 [1, 3] is reported as 502 nM and the IC50 [2] is reported as 0.217 nM.

Cc1nc([C@]2(O)/C=C/C[C@H](C)[C@@H](C)S(=O)(=O)NC(=O)c3ccc4c(c3)N(C[C@@H]3CC[C@H]32)C[C@@]2(CCCc3cc(Cl)ccc32)CO4)cs1 [Example 100516, (1S,3′R,6′R,7′S,8′E,11′S,12′R)-6-chloro-7′-hydroxy-11′,12′-dimethyl-7′-(2-methyl-1,3-thiazol-4-yl)-3,4-dihydro-2H,15′H-spiro[naphthalene-1,22′-[20]oxa[13]thia[1,14]diazatetracyclo [14.7.2.0~3,6~.0~19,24~]pentacosa[8,16,18,24]tetraen]-15′-one 13′,13′-dioxide] was tested, and the IC50 [1, 5] was 1900 nM and the IC50 [2, 4] was 3.36 nM.

For COCCN1CCN(C[C@@]2(OC)/C=C/C[C@H](C)[C@@H](C)S(=O)(=O)NC(=O)c3ccc4c(c3)N(C[C@@H]3CC[C@H]32)C[C@@]2(CCCc3cc(Cl)ccc32)CO4)CC1 [Example 61, (1S,3′R,6′R,7′R,8′E,11′S,12′R)-6-chloro-7′-methoxy-7′-((4-(2-methoxyethyl)-1-piperazinyl)methyl)-11′,12′-dimethyl-3,4-dihydro-2H,15′H-spiro[naphthalene-1,22′-[20]oxa[13]thia[1,14]diazatetracyclo [14.7.2.0~3,6~.0~19,24~]pentacosa[8,16,18,24]tetraen]-15′-one 13′,13′-dioxide], the IC50 [1, 6] was 124 nM and the IC50 [2, 7] was 0.075 nM.

Compound CO[C@@]1(CN2CCOCC2)/C=C/C[C@H](C)[C@@H](C)S(=O)(=O)NC(=O)c2ccc3c(c2)N(C[C@@H]2CC[C@H]21)C[C@@]1(CCCc2cc(Cl)ccc21)CO3 [Example 52, (1S,3′R,6′R,7′S,8′E,11′S,12′R)-6-chloro-7′-methoxy-11′,12′-dimethyl-7′-(4-morpholinylmethyl)-3,4-dihydro-2H,15′H-spiro[naphthalene-1,22′-[20]oxa[13]thia[1,14]diazatetracyclo [14.7.2.0~3,6~.0~19,24~]pentacosa[8,16,18,24]tetraen]-15′-one 13′,13′-dioxide] has an IC50 [1, 6] of 330 nM and an IC50 [2, 7] of 0.522 nM.

Compound CO[C@@]1(CN2CCN3CCOC[C@@H]3C2)/C=C/[C@H](C)[C@H](C)CS(=O)(=O)NC(=O)c2ccc3c(c2)N(C[C@@H]2CC[C@H]21)C[C@@]1(CCCc2cc(Cl)ccc21)CO3 [Example 156, (1S,3′R,6′R,7′S,8′E,10′S,11′S)-6-chloro-7′-((9aS)-hexahydropyrazino[2,1-c][1,4]oxazin-8(1H)-ylmethyl)-7′-methoxy-10′,11′-dimethyl-3,4-dihydro-2H,15′H-spiro[naphthalene-1,22′-[20]oxa[13]thia[1,14]diazatetracyclo [14.7.2.0~3,6~.0~19,24~]pentacosa[8,16,18,24]tetraen]-15′-one 13′,13′-dioxide] has an IC50 [1, 6] of 62 nM and an IC50 [2, 7] of 0.096 nM.

In the case of CC(C)CO[C@]1(C=O)/C=C/C[C@H](C)[C@@H](C)S(=O)(=O)NC(=O)c2ccc3c(c2)N(C[C@@H]2CC[C@H]21)C[C@@]1(CCCc2cc(Cl)ccc21)CO3 [Example 100603, (1S,3′R,6′R,7′R,8′E,11′S,12′R)-6-chloro-11′,12′-dimethyl-7′-(2-methylpropoxy)-15′-oxo-3,4-dihydro-2H-spiro[naphthalene-1,22′-[20]oxa[13]thia[1,14]diazatetracyclo [14.7.2.0~3,6~.0~19,24~]pentacosa[8,16,18,24]tetraene]-7′-carbaldehyde 13′,13′-dioxide], the IC50 [1, 5] is reported as 1570 nM and the IC50 [2, 4] is reported as 0.651 nM.

In the case of CO[C@@]1([C@H](C)O)/C=C/C[C@H](C)[C@@H](C)S(=O)(=O)NC(=O)c2ccc3c(c2)N(C[C@@H]2CC[C@H]21)C[C@@]1(CCCc2cc(Cl)ccc21)CO3 (single isomer, unassigned) [Example 100486], the IC50 [1, 5] is reported as 102 nM and the IC50 [2, 4] is reported as 0.381 nM.

Compound CO[C@@H](C[C@]1(OC)/C=C/C[C@H](C)[C@@H](C)S(=O)(=O)NC(=O)c2ccc3c(c2)N(C[C@@H]2CC[C@H]21)C[C@@]1(CCCc2cc(Cl)ccc21)CO3)C1CC1 [Example 100462, (1S,3′R,6′R,7′S,8′E,11′S,12′R)-6-chloro-7′-((2S)-2-cyclopropyl-2-methoxyethyl)-7′-methoxy-11′,12′-dimethyl-3,4-dihydro-2H,15′H-spiro[naphthalene-1,22′-[20]oxa[13]thia[1,14]diazatetracyclo [14.7.2.0~3,6~.0~19,24~]pentacosa[8,16,18,24]tetraen]-15′-one 13′,13′-dioxide] has an IC50 [1, 5] of 652 nM and an IC50 [2, 4] of 0.304 nM.

CCCO[C@]1(CN2CCN(C(C)C)[C@H](C)C2)/C=C/C[C@H](C)[C@@H](C)S(=O)(=O)NC(=O)c2ccc3c(c2)N(C[C@@H]2CC[C@H]21)C[C@@]1(CCCc2cc(Cl)ccc21)CO3 [Example 368, (1S,3′R,6′R,7′R,8′E,11′S,12′R)-6-chloro-11′,12′-dimethyl-7′-(((3R)-3-methyl-4-(2-propanyl)-1-piperazinyl)methyl)-7′-propoxy-3,4-dihydro-2H,15′H-spiro[naphthalene-1,22′-[20]oxa[13]thia[1,14]diazatetracyclo [14.7.2.0~3,6~.0~19,24~]pentacosa[8,16,18,24]tetraen]-15′-one 13′,13′-dioxide] was tested, and the IC50 [1, 6] was 68 nM and the IC50 [2, 7] was 0.069 nM.

CO[C@@]1(Cc2nnc(C)o2)/C=C/C[C@H](C)[C@@H](C)S(=O)(=O)NC(=O)c2ccc3c(c2)N(C[C@@H]2CC[C@H]21)C[C@@]1(CCCc2cc(Cl)ccc21)CO3 [Example 100512, (1S,3′R,6′R,7′S,8′E,11′S,12′R)-6-chloro-7′-methoxy-11′,12′-dimethyl-7′-((5-methyl-1,3,4-oxadiazol-2-yl)methyl)-3,4-dihydro-2H,15′H-spiro[naphthalene-1,22′-[20]oxa[13]thia[1,14]diazatetracyclo [14.7.2.0~3,6~.0~19,24~]pentacosa[8,16,18,24]tetraen]-15′-one 13′,13′-dioxide] showed an IC50 [1, 5] of 1490 nM and an IC50 [2, 4] of 0.415 nM.
